In the NIST ThermoML archive (doi:10.1016/j.jct.2015.09.002):
Numbers after ± are expanded uncertainties.

Test: xn = mol fraction of the nth substance listed
Details: 93.2 kPa, Liquid, Vibrating tube method

CCCNCCC [dipropylamine] + CC#N
mass density [kg/m3]
Details | 293.15 K | 298.15 K | 303.15 K | 308.15 K
x2 = 0 | 738.18 ± 2 | 733.64 ± 2 | 729.07 ± 2 | 724.48 ± 2
x2 = 0.0106 | 738.6 ± 2 | 734.04 ± 2 | 729.47 ± 2 | 724.87 ± 2
x2 = 0.0215 | 738.86 ± 2 | 734.31 ± 2 | 729.71 ± 2 | 725.09 ± 2
x2 = 0.0323 | 739.1 ± 2 | 734.53 ± 2 | 729.92 ± 2 | 725.29 ± 2
x2 = 0.0406 | 739.28 ± 2 | 734.72 ± 2 | 730.09 ± 2 | 725.48 ± 2
x2 = 0.0507 | 739.51 ± 2 | 734.94 ± 2 | 730.32 ± 2 | 725.71 ± 2
x2 = 0.0605 | 739.75 ± 2 | 735.16 ± 2 | 730.53 ± 2 | 725.91 ± 2
x2 = 0.0684 | 739.93 ± 2 | 735.34 ± 2 | 730.7 ± 2 | 726.08 ± 2
x2 = 0.0801 | 740.21 ± 2 | 735.61 ± 2 | 730.96 ± 2 | 726.32 ± 2
x2 = 0.0926 | 740.51 ± 2 | 735.91 ± 2 | 731.26 ± 2 | 726.61 ± 2
x2 = 0.101 | 740.71 ± 2 | 736.11 ± 2 | 731.45 ± 2 | 726.79 ± 2
x2 = 0.1493 | 741.88 ± 2 | 737.23 ± 2 | 732.56 ± 2 | 727.89 ± 2
x2 = 0.2009 | 743.16 ± 2 | 738.47 ± 2 | 733.79 ± 2 | 729.06 ± 2
x2 = 0.2547 | 744.47 ± 2 | 739.78 ± 2 | 735.06 ± 2 | 730.34 ± 2
x2 = 0.3001 | 745.65 ± 2 | 740.94 ± 2 | 736.2 ± 2 | 731.45 ± 2
x2 = 0.3514 | 747.06 ± 2 | 742.32 ± 2 | 737.55 ± 2 | 732.77 ± 2
x2 = 0.3995 | 748.45 ± 2 | 743.68 ± 2 | 738.88 ± 2 | 734.07 ± 2
x2 = 0.4556 | 750.19 ± 2 | 745.39 ± 2 | 740.57 ± 2 | 735.71 ± 2
x2 = 0.5008 | 751.71 ± 2 | 746.88 ± 2 | 742.02 ± 2 | 737.15 ± 2
x2 = 0.551 | 753.52 ± 2 | 748.66 ± 2 | 743.77 ± 2 | 738.86 ± 2
x2 = 0.6037 | 755.61 ± 2 | 750.71 ± 2 | 745.77 ± 2 | 740.81 ± 2
x2 = 0.6481 | 757.56 ± 2 | 752.63 ± 2 | 747.66 ± 2 | 742.67 ± 2
x2 = 0.6992 | 760.02 ± 2 | 755.04 ± 2 | 750.02 ± 2 | 744.98 ± 2
x2 = 0.7495 | 762.68 ± 2 | 757.65 ± 2 | 752.58 ± 2 | 747.48 ± 2
x2 = 0.7997 | 765.7 ± 2 | 760.61 ± 2 | 755.49 ± 2 | 750.33 ± 2
x2 = 0.8496 | 769.02 ± 2 | 763.85 ± 2 | 758.66 ± 2 | 753.43 ± 2
x2 = 0.9002 | 772.87 ± 2 | 767.63 ± 2 | 762.35 ± 2 | 757.05 ± 2
x2 = 0.9092 | 773.6 ± 2 | 768.35 ± 2 | 763.04 ± 2 | 757.76 ± 2
x2 = 0.9194 | 774.47 ± 2 | 769.22 ± 2 | 763.9 ± 2 | 758.59 ± 2
x2 = 0.9298 | 775.37 ± 2 | 770.09 ± 2 | 764.79 ± 2 | 759.45 ± 2
x2 = 0.9492 | 777.14 ± 2 | 771.83 ± 2 | 766.49 ± 2 | 761.13 ± 2
x2 = 0.9697 | 779.11 ± 2 | 773.75 ± 2 | 768.36 ± 2 | 762.97 ± 2
x2 = 0.9892 | 781.03 ± 2 | 775.63 ± 2 | 770.22 ± 2 | 764.78 ± 2
